Reference: the RepoRT retention time repository

Assay: Thermo Scientific Acclaim RSLC 120 C18, 100 × 2.1 mm, 2.2 µm, 30 °C, 0.2 to 0.48 mL/min, estimated dead time 1.1 min; A: 90% water + 10% methanol + 5 mM ammonium acetate; B: methanol + 5 mM ammonium acetate; gradient (min/%B) 0.1/1 3/39 14/99.9 16/99.9
Conditions: stereoisomer not certain

Row | LC retention time | SMILES
1 | 6.06 min | CC(NC(=O)C(N)CC(=O)O)C(=O)NC1C(C)(C)SC1(C)C (stereo unspecified)
2 | 4.56 min | CC(=O)Nc1cc(S(=O)(=O)O)cc2cc(S(=O)(=O)O)c(N=Nc3ccccc3)c(O)c12
3 | 8.29 min | CCc1cccc(C)c1N(C(=O)C(=O)O)C(C)COC (stereo unspecified)
4 | 3.09 min | O=C1NS(=O)(=O)c2ccccc21
5 | 6.67 min | CC(C)(C)c1n[nH]c(=O)n(N)c1=O
6 | 11.5 min | CCC1OC(=O)C(C)C(OC2CC(C)(OC)C(O)C(C)O2)C(C)C(OC2OC(C)CC(N(C)C)C2O)C(C)(O)CC(C)C(=NOCOCCOC)C(C)C(O)C1(C)O (stereo unspecified)
7 | 9.29 min | Cc1cccc(Nc2ccccc2C(=O)O)c1C
8 | 4.06 min | CC(C)(C)NCC(O)c1ccc(O)c(CO)c1 (stereo unspecified)
9 | 5.56 min | CCNc1nc(NCC)[nH]c(=O)n1
10 | 8.46 min | CCNc1nc(NC(C)(C)C)[nH]c(=O)n1
11 | 2.88 min | COc1cc(S(=O)(=O)O)c(C)cc1N=Nc1c(O)ccc2cc(S(=O)(=O)O)ccc12
12 | 7.69 min | CCc1cccc(CC)c1N(COC)C(=O)C(=O)O
13 | 4.63 min | CCNC1CC(C)S(=O)(=O)c2sc(S(N)(=O)=O)cc21 (stereo unspecified)
14 | 3.58 min | CC(C)NCC(O)COc1ccc(CC(=O)O)cc1 (stereo unspecified)
15 | 4.46 min | CC1(C)SC2C(NC(=O)C(N)c3ccccc3)C(=O)N2C1C(=O)O (stereo unspecified)
16 | 4.12 min | O=S(=O)(O)NC1CCCCC1
17 | 8.24 min | CS(=O)(=O)Nc1ccc([N+](=O)[O-])cc1Oc1ccccc1
18 | 12.8 min | CCOc1cc(CC(=O)NC(CC(C)C)c2ccccc2N2CCCCC2)ccc1C(=O)O (stereo unspecified)
19 | 3.24 min | CNCC(O)c1cccc(O)c1 (stereo unspecified)

Row | LC retention time | SMILES
20 | 5.72 min | Cc1nnc(-c2ccccc2)c(=O)[nH]1
21 | 7.15 min | COC(=O)c1ccc(C)cc1C1=NC(C)(C(C)C)C(=O)N1 (stereo unspecified)
22 | 6.77 min | CC(C(=O)O)c1cccc(C(=O)c2ccccc2)c1 (stereo unspecified)
23 | 3.19 min | CC(N)C12CC3CC(CC(C3)C1)C2 (stereo unspecified)
24 | 10.5 min | CCc1cccc2c3c([nH]c12)C(CC)(CC(=O)O)OCC3 (stereo unspecified)
25 | 8.04 min | CSc1nnc(C(C)(C)C)c(=O)[nH]1
26 | 4.92 min | CCC(CC)OC1C=C(C(=O)O)CC(N)C1NC(C)=O (stereo unspecified)
27 | 6.23 min | CC(C(=O)O)c1ccc(N2Cc3ccccc3C2=O)cc1 (stereo unspecified)
28 | 3.98 min | CNC(=C[N+](=O)[O-])NCCSCc1ccc(C[N+](C)(C)[O-])o1
29 | 3.34 min | Nc1nc2c(ncn2CCC(CO)CO)c(=O)[nH]1
30 | 6.38 min | CC(C)(C#N)c1cc(Cn2cncn2)cc(C(C)(C)C#N)c1
31 | 3.91 min | CC(C)NCC(O)c1ccc(NS(C)(=O)=O)cc1 (stereo unspecified)
32 | 4.61 min | CC(=O)Nc1ccc(S(=O)(=O)Nc2nccs2)cc1
33 | 5.44 min | O=C(O)c1ccccc1S
34 | 4.98 min | COC(=O)C(Cc1ccccc1)NC(=O)C(N)CC(=O)O (stereo unspecified)
35 | 7.46 min | CCCCC1C(=O)N(c2ccccc2)N(c2ccccc2)C1=O
36 | 5.11 min | CN(C)C(=O)Nc1ccccc1
37 | 5.17 min | NS(=O)(=O)Cc1noc2ccccc12

The next lines start with the compound.

Row | SMILES | LC retention time
38 | CNC(=O)Nc1nc2ccccc2s1 | 7.1 min
39 | CC1CCCCC1NC(=O)Nc1ccccc1 (stereo unspecified) | 9.15 min
40 | Cc1ccc(C(C)NC(=O)C(NC(=O)OC(C)C)C(C)C)cc1 (stereo unspecified) | 9.8 min
41 | c1coc(-c2nc3ccccc3[nH]2)c1 | 6.8 min
42 | CC(Cn1cnc2c(N)ncnc21)OCP(=O)(O)O (stereo unspecified) | 3.18 min
43 | COCCN(C(=O)CS(=O)(=O)O)c1c(C)cccc1C | 6.16 min
44 | CCCCN1CCCCC1C(=O)Nc1c(C)cccc1C (stereo unspecified) | 10.7 min
45 | CCCCc1c(C)nc(NCC)nc1OS(=O)(=O)N(C)C | 10.5 min
46 | CC(=O)Nc1ccc(S(=O)(=O)Nc2ncccn2)cc1 | 3.76 min
47 | COc1ccc2cc(C(C)C(=O)O)ccc2c1 (stereo unspecified) | 6.74 min
48 | CC1C=CC=CCCC=CC=CC=CC=CC(OC2OC(C)C(O)C(N)C2O)CC2OC(O)(CC(O)C(O)CCC(O)CC(O)CC(O)CC(=O)OC(C)C(C)C1O)CC(O)C2C(=O)O (stereo unspecified) | 11.8 min
49 | CNC(=O)C(=NOC)c1ccccc1COc1cc(C)ccc1C | 10.6 min
50 | CC(C)(C)c1cc([N+](=O)[O-])cc([N+](=O)[O-])c1O | 8.13 min
51 | CC12CCC3C(CCC4=CC(=O)CCC43C)C1CCC2=O (stereo unspecified) | 13.1 min
52 | O=C(c1ccc(OCCN2CCCCC2)cc1)c1c(-c2ccc(O)cc2)sc2cc(O)ccc12 | 8.86 min
53 | CCC1(c2cccc(O)c2)CCCCN(C)C1 (stereo unspecified) | 6.47 min
54 | O=C(O)Cc1cccc2ccccc12 | 5.7 min
55 | CCOC(=O)CSc1nc(C(C)(C)C)nn1C(=O)N(C)C | 6.37 min
56 | NC(=O)c1ccccc1O | 4.83 min
57 | COC(=O)c1ccccc1CS(=O)(=O)NC(=O)Nc1nc(OC)cc(OC)n1 | 7.66 min
58 | NS(=O)(=O)c1ccccc1 | 3.92 min
59 | CC(C)C(NC(=O)C(CC(=O)O)NC(=O)C(CCCCN)NC(=O)C(N)CCCN=C(N)N)C(=O)NC(Cc1ccc(O)cc1)C(=O)O (stereo unspecified) | 3.16 min
60 | CCNc1nc(NC(C)C)[nH]c(=O)n1 | 6 min
61 | Cc1nnc(-c2ccccc2)c(=O)n1N | 5.22 min
62 | CCCCNc1cc(C(=O)O)cc(S(N)(=O)=O)c1Oc1ccccc1 | 6.73 min

Row | SMILES | LC retention time
63 | COC(=O)c1ccccc1S(=O)(=O)NC(=O)Nc1nc(C)nc(OC)n1 | 4.51 min
64 | COC(=O)C(C)=COP(=S)(OC)OC | 5.12 min
65 | CNC(=O)N(C)c1nc2ccccc2s1 | 8.23 min
66 | CC(C)C1(C)N=C(c2nc3ccccc3cc2C(=O)O)NC1=O (stereo unspecified) | 4.85 min
67 | CC(=O)Nc1ccc(S(=O)(=O)Nc2nc(C)cc(C)n2)cc1 | 5.06 min
68 | CC12CCC3c4ccc(O)c(O)c4CCC3C1CCC2=O (stereo unspecified) | 9.89 min
69 | Cc1cccc(C)c1NC(=O)C1CCCCN1C (stereo unspecified) | 7.49 min
70 | CC(C)(C)CC(C)(C)c1ccc(O)cc1 | 12.3 min
71 | CC(Cc1ccc(O)cc1)NCC(O)c1cc(O)cc(O)c1 (stereo unspecified) | 4.33 min
72 | Cc1cnc(NC(=O)C2=C(O)c3ccccc3S(=O)(=O)N2C)s1 | 6.41 min
73 | CC12C=CC3=C4CCC(=O)C=C4CCC3C1CCC2O (stereo unspecified) | 9.17 min
74 | CC12CCC(=O)C=C1C(O)CC1C2CCC2(C)C(O)CCC12 (stereo unspecified) | 6.61 min
75 | CC12C=CC(=O)C=C1CCC1C2C(=O)CC2(C)C1CCC2(O)C(=O)CO (stereo unspecified) | 8.31 min
76 | CNC(=O)Oc1cccc2c1OC(C)(C)C2O (stereo unspecified) | 5.09 min
77 | CCCCCc1cc(O)c2c(c1)OC(C)(C)C1CCC(CO)=CC21 (stereo unspecified) | 12.3 min
78 | CC[N+]([O-])(CC)CC(=O)Nc1c(C)cccc1C | 6.56 min
79 | CC(C)N(C(=O)CS(=O)(=O)O)c1ccccc1 | 6.01 min
80 | CCC1(CCC(C)C)C(=O)NC(=O)NC1=O | 7.9 min
81 | Oc1ccc(C=Cc2cc(O)cc(O)c2)cc1 | 6.82 min
82 | CCOP(=S)(OCC)Oc1cnccn1 | 8.03 min
83 | COC(=O)c1ccccc1S(=O)(=O)NC(=O)Nc1nc(C)cc(C)n1 | 5.03 min
84 | CCOc1nc2cccc(C(=O)O)c2n1Cc1ccc(-c2ccccc2-c2nn[nH]n2)cc1 | 5.86 min
85 | CCOC(=O)Nc1cccc(OC(=O)Nc2ccccc2)c1 | 8.53 min
86 | O=C(Nc1ccccc1)Nc1cnns1 | 7.12 min
87 | CC(C(=O)O)c1ccc(C2CCCCC2)c2ccccc12 (stereo unspecified) | 11.2 min

Row | SMILES | LC retention time
88 | CCC(=O)OC(OP(=O)(CCCCc1ccccc1)CC(=O)N1CC(C2CCCCC2)CC1C(=O)O)C(C)C (stereo unspecified) | 13.3 min
89 | CC1CC(=O)CC2CCC3C4CCC(O)C4(C)CCC3C12C (stereo unspecified) | 14.4 min
90 | Cc1cc(C)n(-c2nc3ccccc3[nH]2)n1 | 8.22 min
91 | COC1CCC(OC2CC(C3OC(C)(O)C(C)CC3C)OC2C2(C)CCC(C3(C)CCC4(CC(O)C(C)C(C(C)C5OC(O)(CC(=O)O)C(C)C(O)C5OC)O4)O3)O2)OC1C (stereo unspecified) | 13.7 min
92 | CC12CCC3c4ccc(O)cc4CCC3C1CCC2=O (stereo unspecified) | 10.8 min
93 | COc1cccc(C(=O)NN(C(=O)c2cc(C)cc(C)c2)C(C)(C)C)c1C | 9.55 min
94 | O=c1[nH]c(=O)[nH]c(=O)[nH]1 | 1.34 min
95 | C=C(C)C1Cc2c(ccc3c2OC2COc4cc(OC)c(OC)cc4C2C3=O)O1 (stereo unspecified) | 10.4 min
96 | C=CCC1(C(C)C#CCC)C(=O)NC(=O)N(C)C1=O (stereo unspecified) | 9.02 min
97 | CC(C)Cc1ccc(C(C)C(=O)O)cc1 (stereo unspecified) | 9.72 min
98 | S=c1[nH]c2ccccc2s1 | 6.58 min
99 | CC(C)CN(CC(O)C(Cc1ccccc1)NC(=O)OC1COC2OCCC12)S(=O)(=O)c1ccc(N)cc1 (stereo unspecified) | 9.37 min
100 | O=C1CC(C(=O)O)CC(=O)C1=C(O)C1CC1 (stereo unspecified) | 1.49 min
101 | CC1=C(C(=O)Nc2ccccc2)S(=O)(=O)CCO1 | 5.57 min
102 | CNC(=O)ON=C(C)C(C)S(C)=O (stereo unspecified) | 3.36 min
103 | COc1ccc2cc(CCC(C)=O)ccc2c1 | 8.54 min
104 | CNC(=O)CSP(=S)(OC)OC | 5.25 min
105 | CC(C)Nc1nc(N)[nH]c(=O)n1 | 4.08 min
106 | CNC(=C[N+](=O)[O-])NCCS(=O)Cc1ccc(CN(C)C)o1 (stereo unspecified) | 3.93 min
107 | CC12CCC(=O)C=C1CCC1C2C(O)CC2(C)C(C(=O)CO)CCC12 (stereo unspecified) | 9.91 min
108 | CC12C=CC(=O)C=C1CCC1C2C(O)CC2(C)C1CCC2(O)C(=O)CO (stereo unspecified) | 8.92 min
109 | C=C(c1ccc(C(=O)O)cc1)c1cc2c(cc1C)C(C)(C)CCC2(C)C | 14.1 min
110 | CC1=CC(=O)CC2CCC3C4CCC(O)C4(C)CCC3C12C (stereo unspecified) | 13.8 min
111 | Oc1ccccc1-c1ccccc1 | 9.09 min
